Measurements reported in paper PMC6938330, “Crystal structures of p120RasGAP N-terminal SH2 domain in its apo form and in complex with a p190RhoGAP phosphotyrosine peptide” (PLoS ONE, 2019).
Where “and” joins values, the source holds several entries; their conditions need not be identical. Identical values can stand only once. Where a SMILES comes first, the peptide text is derived from it. [ ]: non-standard residue; d: D form. pY = N[C@@H](Cc1ccc(OP(=O)(O)O)cc1)C(=O)O

Key:
[1] = target: T1, N-terminal SH2 domain of p120RasGAP (Homo sapiens, UniProt P20936, C236S/C261S); assay: Isothermal titration calorimetry (ITC), wild-type N-SH2; conditions: 20mM Tris 7.4, 150mM NaCl, independent binding model
T1 construct: cDNA of residues 174 through 280 of human p120RasGAP (UniProt ID: P20936); made in house; host or cells: E. coli Rosetta(DE3)
T1 sequence (P20936 174-280 C236S/C261S): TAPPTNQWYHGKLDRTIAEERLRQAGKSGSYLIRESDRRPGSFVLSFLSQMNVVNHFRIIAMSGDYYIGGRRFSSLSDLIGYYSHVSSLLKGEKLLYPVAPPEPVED
Experimental: (§1) cDNA of residues 174 through 280 of human p120RasGAP (UniProt ID: P20936) encoding the N-terminal SH2 domain tagged was subcloned into a modified pET28a vector with an N-terminal hexahistidine tag and TEV protease recognition sequence. Two native cysteines, C236 and C261, were mutated to serine to prevent disulfide bridge formation. Following transformation into Rosetta(DE3) cells, a 1L culture was induced overnight at OD600 of 0.6–0.8 and 18°C using 0.2 mM IPTG. Cells were harvested by centrifugation and resuspended in lysis buffer (50 mM HEPES pH 7.3, 500 mM NaCl). Lysis was facilitated by lysozyme addition and three freeze/thaw cycles, prior to sonication and DNAse I addition. Clarified lysate was prepared by centrifugation at 5000 x g at 4°C and incubated with nickel beads (Ni-NTA Agarose, Qiagen) for 1 hr at 4°C to capture hexahistidine-tagged protein. Following washing with 3 column volumes of wash buffer (50 mM HEPES pH 7.3, 500 mM NaCl, 20mM imidazole), TEV protease was added overnight at 4 °C to cleave the SH2 domain protein from the hexahistidine-tag. The next day, flow through containing tag-free SH2 domain protein was collected and the beads were washed with several column volumes of wash buffer to fully remove the cleaved protein from the beads. Size exclusion chromatography (Superdex 75, GE Healthcare) was performed on p120RasGAP N-SH2 in 20 mM Tris pH 7.4 and 150 mM NaCl. Yield was 20 mg/L culture. Protein was concentrated by centrifugal filter (Amicon Ultra, Millipore Sigma).
(§2) A synthetic 13 amino acid peptide of sequence EEENI(p-Tyr)SVPHDST native to p190RhoGAP residues 1100 to 1112 phosphorylated at Tyr-1105, with N-terminal acetylation and C-terminal amidation, was commercially synthesized (GenScript) and re-suspended in sterile-filtered water.
(§3) The N-SH2 protein and pTyr1105 peptide were prepared for ITC by overnight dialysis in a common buffer with a 20mM Tris 7.4, 150mM NaCl composition. Slide-A-Lyzer Dialysis Cassettes with a molecular weight cut-off of 3,500 Da were used for protein dialysis and Micro Float-A-Lyzer Dialysis devices with a 100–500 Da cut-off for peptide dialysis. Samples were retrieved from their cartridges, spun down for 10 minutes at 4°C. Concentrations were measured using a Nanodrop spectrophotometer at 280 nm. To determine peptide concentration, a phosphotyrosine extinction coefficient of 458.6 M^-1cm^-1 at pH 7.4 was used. Two ITC experiments were performed using a Nano-ITC (TA Instruments). Both protein and peptide were degassed for 3 minutes prior to loading. 350 μL of protein were injected into the sample cell. The injection burette was loaded with 52 μL of peptide. 20 injections of 2.5 μL of peptide, each spanning 300 seconds, were performed per ITC run. Results were analyzed using the nano-ITC software, through fitting to an independent binding model.
We conducted isothermal titration calorimetry to assess the interaction between the N-terminal SH2 domain of p120RasGAP and the p190RhoGAP pTyr-1105 peptide. We injected the p190RhoGAP pTyr-1105 peptide at a concentration of 78.5 μM into N-SH2 at a concentration of 15 μM. Averaged over two independent experiments we observe a Kd of 0.3 ± 0.1 μM (Fig 5A).

[2] = tested on: R207A mutated N-SH2 (p120RasGAP); assay: Isothermal titration calorimetry (ITC), R207A mutant N-SH2; assay type: binding, human
Experimental: (§4) A mutant form, with R207A mutation, was introduced by QuikChange mutagenesis (Agilent) using forward and reverse primers (5'-[…]-3', 5'- […]-3’). Expression and purification were by identical methods as wild type protein. Yield for the mutant was 4 mg/L culture. Both wild type and mutant constructs elute from size exclusion chromatography as monodisperse peaks.
as §2
as §3, with “Two ITC experiments were performed using a Nano-ITC (TA Instruments). Both protein and peptide were degassed for 3 minutes prior to loading. 350 μL of protein were injected into the sample cell. The injection burette was loaded with 52 μL of peptide. 20 injections of 2.5 μL of peptide, each spanning 300 seconds, were performed per ITC run.” left out, “model. […]” for “model.”

[3] = tested on: wild-type p120RasGAP N-SH2; assay: Native PAGE gel shift, wild-type N-SH2; assay type: binding, human; conditions: saturating peptide concentrations; protein 0.08 mM, peptide 0.02 to 0.15 mM (peptide:protein 0.25 to 1.9); on ice 10 min; 50 mM Tris pH 7.4; 4–20% gel, pH 8.3, 200 V 1 h; Coomassie
Experimental: as §1, with “Size exclusion chromatography (Superdex 75, GE Healthcare) was performed on p120RasGAP N-SH2 in 20 mM Tris pH 7.4 and 150 mM NaCl. Yield was 20 mg/L culture. Protein was concentrated by centrifugal filter (Amicon Ultra, Millipore Sigma).” left out

[4] = tested on: R207A mutant p120RasGAP N-SH2; assay: Native PAGE gel shift, R207A mutant N-SH2; assay type: binding, human; conditions: protein 0.08 mM, peptide 0.02 to 0.15 mM (peptide:protein 0.25 to 1.9); on ice 10 min; 50 mM Tris pH 7.4; 4–20% gel, pH 8.3, 200 V 1 h; Coomassie
Experimental: as §4, §2
A serial dilution series of pTyr-1105 phosphopeptide was performed in dilution buffer (50 mM Tris pH 7.4), and mixed with wild-type or R207A mutant N-terminal SH2 domain protein for a final protein concentration of 0.08 mM and a phosphopeptide concentration ranging from 0.02 mM to 0.15 mM (peptide:protein ratio ranging from 0.25 to 1.9). The protein-peptide mixtures, or protein alone as negative control, were incubated on ice for 10 minutes and then centrifuged for 1 minute at 4 °C. 10 μL of 2X native protein sample buffer (62.5 mM Tris HCL pH 6.8, 40% glycerol, 0.01% bromophenol blue) was then added to all samples. […]

[5] = target: p190RhoGAP pTyr-1105 peptide pTyr-1105 peptide (Homo sapiens, UniProt Q9NRY4, pTyr1105); assay: ITC
[6] = target: T2, p120RasGAP N-terminal SH2 domain (residues 174-280, C236S, C261S) (human, UniProt P20936 174-280, C236S | C261S); assay: ITC; peptide in the burette injected into N-SH2 in the cell (78.5 μM into 15 μM wild type; 120 μM into 15 μM R207A); 20 mM Tris 7.4, 150 mM NaCl; Nano-ITC, 20 injections of 2.5 μL; independent binding model; two runs; conditions: both partners purified
T2 construct: human p120RasGAP (RASA1), residues 174 through 280, the N-terminal SH2 domain; two native cysteines mutated to serine; The His6 tag was removed with TEV protease; also called p120RasGAP N-SH2; N-SH2; source: E. coli Rosetta(DE3), purified (Ni-NTA, TEV cleavage, Superdex 75 SEC); not shown: His6, N-terminal, cleaved
T2 sequence (looked up): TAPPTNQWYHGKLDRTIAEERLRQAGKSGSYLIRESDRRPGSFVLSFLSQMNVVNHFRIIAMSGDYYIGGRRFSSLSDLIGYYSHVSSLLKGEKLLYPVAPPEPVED

`CC[C@H](C)[C@H](NC(=O)[C@H](CC(N)=O)NC(=O)[C@H](CCC(=O)O)NC(=O)[C@H](CCC(=O)O)NC(=O)[C@H](CCC(=O)O)NC(C)=O)C(=O)N[C@@H](Cc1ccc(OP(=O)(O)O)cc1)C(=O)N[C@@H](CO)C(=O)N[C@H](C(=O)N1CCC[C@H]1C(=O)N[C@@H](Cc1c[nH]cn1)C(=O)N[C@@H](CC(=O)O)C(=O)N[C@@H](CO)C(=O)N[C@H](C(N)=O)[C@@H](C)O)C(C)C` [p190RhoGAP pTyr-1105 peptide] (Ac-EEENI[pY]SVPHDST-NH2) was tested, and the Kd ([1]; averaged over two independent ITC experiments, peptide at 78.5 μM injected into N-SH2 (residues 174-280, C236S/C261S) at 15 μM, 20 injections of 2.5 μL, 300 s each, read-out: Kd (dissociation constant)) was 300 ± 100 nM, the TΔS ([1]; run 1 of two) was -8.9 kcal/mol and the ΔG ([1]; run 1 of two) was -8.7 kcal/mol. For the same molecule, the ΔH ([1]; run 1 of two) was -17.6 kcal/mol, the TΔS ([1]; run 2 of two) was -4.9 kcal/mol and the ΔG ([1]; run 2 of two) was -9.0 kcal/mol. The ΔH ([1]; run 2 of two) was -13.9 kcal/mol, the “interaction upon mutation of the FLVR motif arginine residue” value ([2]; R207A mutant, summarising statement of the Conclusions (ITC and native PAGE)) was “abolishes interaction” and the heat of binding ([2]; peptide at 120 μM injected into R207A mutated N-SH2 at 15 μM, 20mM Tris 7.4, 150mM NaCl) was “do not observe measurable heat”. The “mobility shift in native gel” value [3] was “significant increase in its mobility in the gel” and the “mobility shift in native gel” value [4] was “fails to shift”.

B1: p120RasGAP N-terminal SH2 (protein)
chain: WYHGKLDRTIAEERLRQAGKSGSYLIRESDRRPGSFVLSFLSQMNVVNHFRIIAMCGDYYIGGRRFSSLSDLIGYYSHVSCLLKGEKLLYPV
B1 was tested, and the Kd [5] was 300 nM.

B2: p190RhoGAP pTyr-1105 phosphopeptide EEENI(p-Tyr)SVPHDST (residues 1100-1112) (peptide)
peptide: Ac-EEENI[pY]SVPHDST-NH2
SMILES: CC[C@H](C)[C@H](NC(=O)[C@H](CC(N)=O)NC(=O)[C@H](CCC(=O)O)NC(=O)[C@H](CCC(=O)O)NC(=O)[C@H](CCC(=O)O)NC(C)=O)C(=O)N[C@@H](Cc1ccc(OP(=O)(O)O)cc1)C(=O)N[C@@H](CO)C(=O)N[C@H](C(=O)N1CCC[C@H]1C(=O)N[C@@H](Cc1c[nH]cn1)C(=O)N[C@@H](CC(=O)O)C(=O)N[C@@H](CO)C(=O)N[C@H](C(N)=O)[C@@H](C)O)C(C)C
notes: The sixth residue (Y) is phosphotyrosine; also called pTyr1105 peptide; source: synthetic peptide (GenScript)
In the case of B2, the Kd [6] is reported as 240 nM and 430 nM, the dH [6] is reported as -17.6 kcal/mol and -13.9 kcal/mol and the “stoichiometry N” value [6] is reported as 0.724 and 0.63.
